Assay results: BigSolDB 2.1

With `Cc1ccccc1S(N)(=O)=O` the solubility (mole fraction) (in acetone, 273.15 K) was 0.0728, the solubility (mole fraction) (in acetone, 279.15 K) was 0.0787 and the solubility (mole fraction) (in acetone, 283.75 K) was 0.0844. It also gave a solubility (mole fraction) (in acetone, 289.15 K) of 0.091, a solubility (mole fraction) (in acetone, 298.95 K) of 0.105 and a solubility (mole fraction) (in acetone, 303.25 K) of 0.113. The solubility (mole fraction) (in acetone, 308.65 K) was 0.124, the solubility (mole fraction) (in acetone, 313.15 K) was 0.134 and the solubility (mole fraction) (in acetone, 318.15 K) was 0.146. The solubility (mole fraction) (in acetone, 323.15 K) was 0.158, the solubility (mole fraction) (in acetonitrile, 273.15 K) was 0.0167 and the solubility (mole fraction) (in acetonitrile, 279.15 K) was 0.0196. It also gave a solubility (mole fraction) (in acetonitrile, 283.95 K) of 0.022, a solubility (mole fraction) (in acetonitrile, 293.35 K) of 0.0297 and a solubility (mole fraction) (in acetonitrile, 298.95 K) of 0.0347. The solubility (mole fraction) (in acetonitrile, 303.25 K) was 0.0401, the solubility (mole fraction) (in acetonitrile, 308.95 K) was 0.0476 and the solubility (mole fraction) (in acetonitrile, 313.15 K) was 0.0533. For the same compound, the solubility (mole fraction) (in acetonitrile, 319.15 K) was 0.0634, the solubility (mole fraction) (in acetonitrile, 323.85 K) was 0.0723 and the solubility (mole fraction) (in cyclohexanone, 273.15 K) was 0.0803. The solubility (mole fraction) (in cyclohexanone, 279.15 K) was 0.0861, the solubility (mole fraction) (in cyclohexanone, 283.95 K) was 0.0927 and the solubility (mole fraction) (in cyclohexanone, 289.15 K) was 0.0992. For the same compound, the solubility (mole fraction) (in cyclohexanone, 293.35 K) was 0.105, the solubility (mole fraction) (in cyclohexanone, 298.95 K) was 0.114 and the solubility (mole fraction) (in cyclohexanone, 303.25 K) was 0.122. It also gave a solubility (mole fraction) (in cyclohexanone, 308.95 K) of 0.133, a solubility (mole fraction) (in cyclohexanone, 313.15 K) of 0.143 and a solubility (mole fraction) (in cyclohexanone, 319.15 K) of 0.156. It also gave a solubility (mole fraction) (in cyclohexanone, 323.85 K) of 0.168, a solubility (mole fraction) (in cyclopentanone, 273.15 K) of 0.098 and a solubility (mole fraction) (in cyclopentanone, 279.15 K) of 0.104. For the same compound, the solubility (mole fraction) (in cyclopentanone, 283.95 K) was 0.111, the solubility (mole fraction) (in cyclopentanone, 289.15 K) was 0.118 and the solubility (mole fraction) (in cyclopentanone, 293.35 K) was 0.124. It also gave a solubility (mole fraction) (in cyclopentanone, 298.95 K) of 0.133, a solubility (mole fraction) (in cyclopentanone, 303.25 K) of 0.142 and a solubility (mole fraction) (in cyclopentanone, 308.95 K) of 0.152. The solubility (mole fraction) (in cyclopentanone, 313.15 K) was 0.16, the solubility (mole fraction) (in cyclopentanone, 319.15 K) was 0.175 and the solubility (mole fraction) (in cyclopentanone, 323.85 K) was 0.187. For the same compound, the solubility (mole fraction) (in dichloromethane, 273.15 K) was 0.00161, the solubility (mole fraction) (in dichloromethane, 279.15 K) was 0.00199 and the solubility (mole fraction) (in dichloromethane, 283.95 K) was 0.00233. For the same compound, the solubility (mole fraction) (in dichloromethane, 289.15 K) was 0.00304, the solubility (mole fraction) (in dichloromethane, 293.35 K) was 0.00365 and the solubility (mole fraction) (in dichloromethane, 298.95 K) was 0.00463. It also gave a solubility (mole fraction) (in dichloromethane, 303.25 K) of 0.00547, a solubility (mole fraction) (in dichloromethane, 308.95 K) of 0.00697 and a solubility (mole fraction) (in dichloromethane, 312.15 K) of 0.00785. The solubility (mole fraction) (in ethanol, 273.15 K) was 0.00764, the solubility (mole fraction) (in ethanol, 279.15 K) was 0.00971 and the solubility (mole fraction) (in ethanol, 283.75 K) was 0.0116. For the same compound, the solubility (mole fraction) (in ethanol, 289.15 K) was 0.0147, the solubility (mole fraction) (in ethanol, 298.95 K) was 0.0196 and the solubility (mole fraction) (in ethanol, 303.25 K) was 0.0226. For the same compound, the solubility (mole fraction) (in ethanol, 308.65 K) was 0.0275, the solubility (mole fraction) (in ethanol, 313.15 K) was 0.0315 and the solubility (mole fraction) (in ethanol, 318.15 K) was 0.0374. The solubility (mole fraction) (in ethanol, 323.15 K) was 0.0439, the solubility (mole fraction) (in ethyl acetate, 273.15 K) was 0.0221 and the solubility (mole fraction) (in ethyl acetate, 279.15 K) was 0.0248. It also gave a solubility (mole fraction) (in ethyl acetate, 283.75 K) of 0.0278, a solubility (mole fraction) (in ethyl acetate, 289.15 K) of 0.0307 and a solubility (mole fraction) (in ethyl acetate, 298.95 K) of 0.0377. The solubility (mole fraction) (in ethyl acetate, 303.25 K) was 0.0416, the solubility (mole fraction) (in ethyl acetate, 308.65 K) was 0.0471 and the solubility (mole fraction) (in ethyl acetate, 313.15 K) was 0.0518. It also gave a solubility (mole fraction) (in ethyl acetate, 318.15 K) of 0.0578, a solubility (mole fraction) (in ethyl acetate, 323.15 K) of 0.0643 and a solubility (mole fraction) (in ethyl formate, 273.15 K) of 0.013. It also gave a solubility (mole fraction) (in ethyl formate, 279.15 K) of 0.0146, a solubility (mole fraction) (in ethyl formate, 283.95 K) of 0.0165 and a solubility (mole fraction) (in ethyl formate, 289.15 K) of 0.0185. The solubility (mole fraction) (in ethyl formate, 293.35 K) was 0.0207, the solubility (mole fraction) (in ethyl formate, 298.95 K) was 0.0239 and the solubility (mole fraction) (in ethyl formate, 303.25 K) was 0.0273. The solubility (mole fraction) (in ethyl formate, 308.95 K) was 0.0316, the solubility (mole fraction) (in ethyl formate, 313.15 K) was 0.0354 and the solubility (mole fraction) (in ethyl formate, 319.15 K) was 0.0408. It also gave a solubility (mole fraction) (in ethyl formate, 323.85 K) of 0.0461, a solubility (mole fraction) (in isobutanol, 273.15 K) of 0.00205 and a solubility (mole fraction) (in isobutanol, 279.15 K) of 0.00284. For the same compound, the solubility (mole fraction) (in isobutanol, 283.75 K) was 0.00363, the solubility (mole fraction) (in isobutanol, 289.15 K) was 0.00476 and the solubility (mole fraction) (in isobutanol, 298.95 K) was 0.00768. The solubility (mole fraction) (in isobutanol, 303.25 K) was 0.00934, the solubility (mole fraction) (in isobutanol, 308.65 K) was 0.012 and the solubility (mole fraction) (in isobutanol, 313.15 K) was 0.0144. The solubility (mole fraction) (in isobutanol, 318.15 K) was 0.0178, the solubility (mole fraction) (in isobutanol, 323.15 K) was 0.0215 and the solubility (mole fraction) (in isopentanol, 273.15 K) was 0.00248. It also gave a solubility (mole fraction) (in isopentanol, 279.15 K) of 0.00333, a solubility (mole fraction) (in isopentanol, 283.95 K) of 0.00419 and a solubility (mole fraction) (in isopentanol, 289.15 K) of 0.00534. It also gave a solubility (mole fraction) (in isopentanol, 293.35 K) of 0.00642, a solubility (mole fraction) (in isopentanol, 298.95 K) of 0.00805 and a solubility (mole fraction) (in isopentanol, 303.25 K) of 0.00978. For the same compound, the solubility (mole fraction) (in isopentanol, 308.95 K) was 0.0125, the solubility (mole fraction) (in isopentanol, 313.15 K) was 0.0144 and the solubility (mole fraction) (in isopentanol, 319.15 K) was 0.0183. For the same compound, the solubility (mole fraction) (in isopentanol, 323.85 K) was 0.0214, the solubility (mole fraction) (in isopropanol, 273.15 K) was 0.00343 and the solubility (mole fraction) (in isopropanol, 279.15 K) was 0.00464. It also gave a solubility (mole fraction) (in isopropanol, 283.75 K) of 0.00581, a solubility (mole fraction) (in isopropanol, 289.15 K) of 0.00756 and a solubility (mole fraction) (in isopropanol, 298.95 K) of 0.0115. It also gave a solubility (mole fraction) (in isopropanol, 303.25 K) of 0.0137, a solubility (mole fraction) (in isopropanol, 308.65 K) of 0.0175 and a solubility (mole fraction) (in isopropanol, 313.15 K) of 0.0208. For the same compound, the solubility (mole fraction) (in isopropanol, 318.15 K) was 0.0252, the solubility (mole fraction) (in isopropanol, 323.15 K) was 0.0304 and the solubility (mole fraction) (in methanol, 273.15 K) was 0.0128. The solubility (mole fraction) (in methanol, 279.15 K) was 0.016, the solubility (mole fraction) (in methanol, 283.75 K) was 0.0189 and the solubility (mole fraction) (in methanol, 289.15 K) was 0.0233. For the same compound, the solubility (mole fraction) (in methanol, 298.95 K) was 0.0311, the solubility (mole fraction) (in methanol, 303.25 K) was 0.0355 and the solubility (mole fraction) (in methanol, 308.65 K) was 0.0422. The solubility (mole fraction) (in methanol, 313.15 K) was 0.0489, the solubility (mole fraction) (in methanol, 318.15 K) was 0.0567 and the solubility (mole fraction) (in methanol, 323.15 K) was 0.0658. For the same compound, the solubility (mole fraction) (in methyl acetate, 273.15 K) was 0.027, the solubility (mole fraction) (in methyl acetate, 279.15 K) was 0.0303 and the solubility (mole fraction) (in methyl acetate, 283.95 K) was 0.0337. The solubility (mole fraction) (in methyl acetate, 289.15 K) was 0.0374, the solubility (mole fraction) (in methyl acetate, 293.35 K) was 0.0405 and the solubility (mole fraction) (in methyl acetate, 298.95 K) was 0.046. It also gave a solubility (mole fraction) (in methyl acetate, 303.25 K) of 0.0513, a solubility (mole fraction) (in methyl acetate, 308.95 K) of 0.058 and a solubility (mole fraction) (in methyl acetate, 313.15 K) of 0.0637. It also gave a solubility (mole fraction) (in methyl acetate, 319.15 K) of 0.0731, a solubility (mole fraction) (in methyl acetate, 323.85 K) of 0.0809 and a solubility (mole fraction) (in n-butanol, 273.15 K) of 0.00341. The solubility (mole fraction) (in n-butanol, 279.15 K) was 0.00451, the solubility (mole fraction) (in n-butanol, 283.75 K) was 0.00556 and the solubility (mole fraction) (in n-butanol, 289.15 K) was 0.00731. For the same compound, the solubility (mole fraction) (in n-butanol, 298.95 K) was 0.0104, the solubility (mole fraction) (in n-butanol, 303.25 K) was 0.0123 and the solubility (mole fraction) (in n-butanol, 308.65 K) was 0.0154. For the same compound, the solubility (mole fraction) (in n-butanol, 313.15 K) was 0.0181, the solubility (mole fraction) (in n-butanol, 318.15 K) was 0.0218 and the solubility (mole fraction) (in n-butanol, 323.15 K) was 0.0262. The solubility (mole fraction) (in n-pentanol, 273.15 K) was 0.0027, the solubility (mole fraction) (in n-pentanol, 279.15 K) was 0.00363 and the solubility (mole fraction) (in n-pentanol, 283.95 K) was 0.00456. For the same compound, the solubility (mole fraction) (in n-pentanol, 289.15 K) was 0.00568, the solubility (mole fraction) (in n-pentanol, 293.35 K) was 0.00705 and the solubility (mole fraction) (in n-pentanol, 298.95 K) was 0.00875. The solubility (mole fraction) (in n-pentanol, 303.25 K) was 0.0108, the solubility (mole fraction) (in n-pentanol, 308.95 K) was 0.0134 and the solubility (mole fraction) (in n-pentanol, 313.15 K) was 0.0158. The solubility (mole fraction) (in n-pentanol, 319.15 K) was 0.0195, the solubility (mole fraction) (in n-pentanol, 323.85 K) was 0.023 and the solubility (mole fraction) (in n-propanol, 273.15 K) was 0.00418. The solubility (mole fraction) (in n-propanol, 279.15 K) was 0.0055, the solubility (mole fraction) (in n-propanol, 283.75 K) was 0.00674 and the solubility (mole fraction) (in n-propanol, 289.15 K) was 0.00847. The solubility (mole fraction) (in n-propanol, 298.95 K) was 0.0126, the solubility (mole fraction) (in n-propanol, 303.25 K) was 0.0148 and the solubility (mole fraction) (in n-propanol, 308.65 K) was 0.0182. For the same compound, the solubility (mole fraction) (in n-propanol, 313.15 K) was 0.0215, the solubility (mole fraction) (in n-propanol, 318.15 K) was 0.0257 and the solubility (mole fraction) (in n-propanol, 323.15 K) was 0.03.
